Assay results as given in US12435061B2 (priority 2020, dated 2025).
In brackets after ≈: the same amount, converted by molar mass. Like-named read-outs stand apart in the source and are kept apart here.

Tests used:
[1] = Aqueous solubility assay in Normal Ringer Solution; conditions: Normal Ringer Solution; for solubility at 40 min: saline or isotonic, kinetic from dmso stock
Experimental: Following vortex and incubation for a sufficient time (e.g. 40 minutes at room temperature), solutions were filtered, quenched with acetonitrile, and analyzed by Liquid Chromotography. Solubility Limits were determined by comparison to a standard curve.

[2] = molecular target: hTRPV3 (Homo sapiens (Human), UniProt Q8NET8); assay: Whole-cell patch clamp, hTRPV3 Phase 1 / Phase 2 currents; type: cell-based
In short: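 Currents are activated by 20 μM 2-APB or by perfusate at 28 °C or warmer, in Ringer's solution, and quantified at ±80 mV.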

[3] = Metabolic Stability assay, rat liver microsomes; type: in vitro ADME
Experimental: Metabolic Stability assay: The metabolic stability was determined by adding compound dissolved in DMSO to human or rat, liver microsomes. Briefly, assays were run with a starting concentration of 1 μM test article. The reaction was started by addition of NADPH regeneration components at 37° C. at which time an aliquot was immediately quenched in ice-cold acetonitrile/MeOH/H2O solution. Reaction mixture was incubated at 37° C. on a shaker, and additional aliquots were taken at 7, 15, 30 and 60 minutes. Following quench and centrifugation, samples were analyzed on HPLC/MS/MS.

[4] = Phase 1 current, inward, whole-cell patch clamp, read-out: hTRPV3 Patch P1 Inwd
[5] = Phase 1 current, read-out: hTRPV3 (nM) (Phase 1)
[6] = Phase 2 current, inward, whole-cell patch clamp, read-out: hTRPV3 Patch P2 Inwd
[7] = Phase 2 current, read-out: hTRPV3 (nM) (Phase 2)

hTRPV3, sequence (Q8NET8 whole entry): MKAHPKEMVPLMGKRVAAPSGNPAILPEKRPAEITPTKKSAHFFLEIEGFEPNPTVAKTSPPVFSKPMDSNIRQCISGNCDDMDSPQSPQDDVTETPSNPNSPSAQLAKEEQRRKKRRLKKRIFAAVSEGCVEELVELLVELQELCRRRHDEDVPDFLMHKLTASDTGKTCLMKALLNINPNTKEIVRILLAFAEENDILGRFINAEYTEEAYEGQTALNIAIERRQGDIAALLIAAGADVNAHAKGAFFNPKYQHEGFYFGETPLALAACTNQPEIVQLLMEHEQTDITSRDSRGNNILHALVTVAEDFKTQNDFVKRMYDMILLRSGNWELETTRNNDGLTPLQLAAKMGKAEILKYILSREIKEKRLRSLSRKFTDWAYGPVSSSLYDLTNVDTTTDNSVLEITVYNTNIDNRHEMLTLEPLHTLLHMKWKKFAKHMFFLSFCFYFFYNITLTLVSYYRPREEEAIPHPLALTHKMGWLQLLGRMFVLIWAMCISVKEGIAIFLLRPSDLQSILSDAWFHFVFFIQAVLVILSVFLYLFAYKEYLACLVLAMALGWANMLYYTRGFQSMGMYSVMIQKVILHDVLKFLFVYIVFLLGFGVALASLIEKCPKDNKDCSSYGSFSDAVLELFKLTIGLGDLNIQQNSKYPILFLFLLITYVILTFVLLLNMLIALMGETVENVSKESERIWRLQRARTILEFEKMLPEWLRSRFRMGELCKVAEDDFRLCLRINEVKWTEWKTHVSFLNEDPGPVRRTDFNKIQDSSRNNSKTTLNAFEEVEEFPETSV

Row | Structure (SMILES) | IC50 [2, 4] [nM] | IC50 [2, 5] [nM] | IC50 [2, 6] [nM] | IC50 [2, 7] [nM] | half-life at 1 μM ([3]; read-out: LM T1/2 (min) (rat)) | solubility at 40 min [1] [µM] | further results
1 | Oc1cc(-c2ccccc2Cl)ccc1N1CC[C@@H](Oc2ccc(C(F)(F)F)cn2)C1 [Compound 1-113, (R)-2′-chloro-4-(3-(5-(trifluoromethyl)pyridin-2-yloxy)pyrrolidin-1-yl)biphenyl-3-ol] | 100 to 1000 | ~97.5 | 100 to 1000 | 109 | 33.5 | – | Solubility Ringer (nM) ([1]; room temperature): BLQ
2 | OCCOc1cc(-c2ccccc2)ccc1N1CC[C@@H](Oc2ccc(C(F)(F)F)cn2)C1 [Compound 1-117, (R)-2-(4-(3-(5-(trifluoromethyl)pyridin-2-yloxy)pyrrolidin-1-yl)biphenyl-3-yloxy)ethanol] | > 1000 | 1920 | 100 to 1000 | 486 | 79.8 | ~2 (≈ 0.889 µg/mL) | –
3 | OCCOc1cc(-c2ccccc2Cl)ccc1N1CC[C@H](Oc2ccc(C(F)(F)F)cn2)C1 [Compound 1-133, (S)-2-(2′-chloro-4-(3-(5-(trifluoromethyl)pyridin-2-yloxy)pyrrolidin-1-yl)biphenyl-3-yloxy)ethanol] | > 1000 | 1120 | – | – | 55 | 0.56 (≈ 0.268 µg/mL) | –
4 | NC(=O)c1cc(C(=O)c2ccccc2)ccc1N1CC[C@H](Oc2ncccc2Cl)C1 [Compound 1-136, (S)-5-benzoyl-2-(3-(3-chloropyridin-2-yloxy)pyrrolidin-1-yl)benzamide] | – | – | – | – | 19.7 | > 15 | IC50 ([2]; hTRPV3 Patch P1 Inwd (nM)): > 1000 nM; IC50 ([2]; hTRPV3 Patch P2 Inwd (nM)): > 1000 nM; IC50 ([2]; read-out: hTRPV3 (nM) (Phase 1)): 1620 nM; IC50 ([2]; read-out: hTRPV3 (nM) (Phase 2)): 1670 nM
5 | Cc1ccc(O[C@H]2CCN(c3ccc(-c4ccccc4)cc3CO)C2)nc1 [Compound 1-141, (S)-(4-(3-(5-methylpyridin-2-yloxy)pyrrolidin-1-yl)biphenyl-3-yl)methanol] | 100 to 1000 | 125 | – | – | 38.4 | ~0.97 (≈ 0.35 µg/mL) | –
6 | OCCc1cc(-c2ccccc2)ccc1N1CC[C@H](Oc2ccc(C(F)(F)F)cn2)C1 [Compound 1-142, (S)-2-(4-(3-(5-(trifluoromethyl)pyridin-2-yloxy)pyrrolidin-1-yl)biphenyl-3-yl)ethanol] | 100 to 1000 | 275 | – | – | 65.2 | – | Solubility Ringer (nM) ([1]; room temperature): BLQ
7 | COc1ccccc1-c1ccc(N2CC[C@H](Oc3ccc(C(F)(F)F)cn3)C2)c(CO)c1 [Compound 1-151, (S)-(2′-methoxy-4-(3-(5-(trifluoromethyl)pyridin-2-yloxy)pyrrolidin-1-yl)biphenyl-3-yl)methanol] | 100 to 1000 | 125 | – | – | 38.9 | – | Solubility Ringer (nM) ([1]; room temperature): BLQ
8 | CC(=O)c1ccccc1-c1ccc(N2CC[C@H](Oc3ccc(C(F)(F)F)cn3)C2)c(CO)c1 [Compound 1-157, (S)-1-(3′-(hydroxymethyl)-4′-(3-(5-(trifluoromethyl)pyridin-2-yloxy)pyrrolidin-1-yl)biphenyl-2-yl)ethanone] | 100 to 1000 | 211 | – | – | 17.5 | ~1.8 (≈ 0.822 µg/mL) | –
9 | COCc1ccccc1-c1ccc(N2CC[C@H](Oc3ccc(C(F)(F)F)cn3)C2)c(CO)c1 [Compound 1-160, (S)-(2′-(methoxymethyl)-4-(3-(5-(trifluoromethyl)pyridin-2-yloxy)pyrrolidin-1-yl)biphenyl-3-yl)methanol] | 10 to 100 | 71.6 | 100 to 1000 | 106 | 19.1 | ~0.4 (≈ 0.183 µg/mL) | –
10 | O=C(CO)c1cc(-c2ccccc2)ccc1N1CC[C@H](Oc2ccc(C(F)(F)F)cn2)C1 [Compound 1-178, (S)-2-hydroxy-1-(4-(3-(5-(trifluoromethyl)pyridin-2-yloxy)pyrrolidin-1-yl)biphenyl-3-yl)ethanone] | – | – | 100 to 1000 | 146 | 66.5 | ~0.2 (≈ 0.0885 µg/mL) | –
11 | COc1ccccc1Oc1ccc(N2CC[C@H](Oc3ccc(C)cn3)C2)c(CO)n1 [Compound 1-205, (S)-(6-(2-methoxyphenoxy)-3-(3-(5-methylpyridin-2-yloxy)pyrrolidin-1-yl)pyridin-2-yl)methanol] | > 1000 | ~3000 | > 1000 | ~6000 | 16 | > 7.2 | –
12 | Cc1ccccc1C(O)c1ccc(N2CC[C@H](Oc3ncccc3F)C2)c(CO)c1 (stereo partly drawn) [Compound 1-231, (4-((S)-3-(3-fluoropyridin-2-yloxy)pyrrolidin-1-yl)-3-(hydroxymethyl)phenyl)(o-tolyl)methanol] | – | – | – | – | 16.3 | > 26.8 | –
13 | Cc1ccccc1C(=O)c1ccc(N2CC[C@H](Oc3ncccc3F)C2)c(CO)c1 [Compound 1-243, (S)-(4-(3-(3-fluoropyridin-2-yloxy)pyrrolidin-1-yl)-3-(hydroxymethyl)phenyl)(o-tolyl)methanone] | 100 to 1000 | 296 | – | – | 6.26 | ~7.34 (≈ 2.98 µg/mL) | –
14 | Cc1ccccc1C(=O)c1ccc(N2CC[C@H](Oc3ncccc3Cl)C2)c(CO)c1 [Compound 1-246, (S)-(4-(3-(3-chloropyridin-2-yloxy)pyrrolidin-1-yl)-3-(hydroxymethyl)phenyl)(o-tolyl)methanone] | 100 to 1000 | 136 | 100 to 1000 | 136 | 7.36 | ~1.87 (≈ 0.791 µg/mL) | –
15 | Cc1ccccc1C(O)c1ccc(N2CC[C@H](Oc3ncccc3Cl)C2)c(CO)c1 (stereo partly drawn) [Compound 1-247, (4-((S)-3-(3-chloropyridin-2-yloxy)pyrrolidin-1-yl)-3-(hydroxymethyl)phenyl)(o-tolyl)methanol] | 100 to 1000 | 132 | 100 to 1000 | 202 | 13.1 | > 9 | –
16 | CCc1ccccc1C(=O)c1ccc(N2CC[C@H](Oc3ncccc3Cl)C2)c(CO)c1 [Compound 1-251, (S)-(4-(3-(3-chloropyridin-2-yloxy)pyrrolidin-1-yl)-3-(hydroxymethyl)phenyl)(2-ethylphenyl)methanone] | 10 to 100 | 102 | – | – | – | – | Solubility Ringer ([1]; room temperature): >3.6 µM; LM T1/2 (min) (rat) ([3]; 1 μM): 6.25 (rat) min
17 | CCc1ccccc1C(=O)c1ccc(N2CC[C@H](Oc3ncccc3Cl)C2)c(CO)c1 [Compound 1-256, (S)-(4-(3-(3-chloropyridin-2-yloxy)pyrrolidin-1-yl)-3-(hydroxymethyl)phenyl)(2-ethylphenyl)methanone] | 10 to 100 | 50.9 | – | – | 6.05 | ~0.45 (≈ 0.197 µg/mL) | –
18 | OCc1cc(C(O)c2ccccc2Cl)ccc1N1CC[C@H](Oc2ncccc2F)C1 (stereo partly drawn) [Compound 1-264, (2-chlorophenyl)(4-((S)-3-(3-fluoropyridin-2-yloxy)pyrrolidin-1-yl)-3-(hydroxymethyl)phenyl)methanol] | 10 to 100 | 54.1 | 10 to 100 | 79.3 | 19.4 | > 13.2 | –
19 | CCc1ccccc1Oc1ccc(N2CC[C@H](Oc3ncccc3F)C2)c(CO)c1 [Compound 1-267, (S)-(5-(2-ethylphenoxy)-2-(3-(3-fluoropyridin-2-yloxy)pyrrolidin-1-yl)phenyl)methanol] | 10 to 100 | 19.1 | – | – | 30.6 | ~0.38 (≈ 0.155 µg/mL) | –
20 | CCc1ccccc1Oc1ccc(N2CC[C@H](Oc3ncccc3C)C2)c(CO)c1 [Compound 1-268, (S)-(5-(2-ethylphenoxy)-2-(3-(3-methylpyridin-2-yloxy)pyrrolidin-1-yl)phenyl)methanol] | < 10 | 2.8 | < 10 | ~2.54 | 22 | 0.25 (≈ 0.101 µg/mL) | –
21 | OCc1cc(Oc2ccccc2F)ccc1N1CC[C@H](Oc2ncccc2Cl)C1 [Compound 1-270, (S)-(2-(3-(3-chloropyridin-2-yloxy)pyrrolidin-1-yl)-5-(2-fluorophenoxy)phenyl)methanol] | < 10 | 9.39 | < 10 | 7.44 | 24.3 | 1 (≈ 0.415 µg/mL) | –
22 | CCc1ccccc1Oc1ccc(N2CC[C@H](Oc3ccccn3)C2)c(CO)c1 [Compound 1-275] | 10 to 100 | 24.8 | – | – | 22.8 | ~1 (≈ 0.39 µg/mL) | –
23 | Cc1ccc(C(=O)c2ccc(N3CC[C@H](Oc4ncccc4Cl)C3)c(CO)c2)cc1 [Compound 1-277, (S)-(4-(3-(3-chloropyridin-2-yloxy)pyrrolidin-1-yl)-3-(hydroxymethyl)phenyl)(p-tolyl)methanone] | 10 to 100 | 63 | – | – | 15.7 | 0.47 (≈ 0.199 µg/mL) | –
24 | CC(C)c1ccccc1Oc1ccc(C2CCN(C(=O)Cc3ccccn3)C2)c(CO)c1 (centres unmarked) [Compound 2-116] | – | – | – | – | – | – | IC50 ([2]; Phase 1 current, human TRPV3, read-out: hTRPV3 (nM) Phase 1): ~3500 nM; IC50 ([2]; Phase 2 current, human TRPV3, read-out: hTRPV3 (nM) Phase 2): 2600 nM; half-life at 1 μM ([3]; read-out: LM T1/2 (min) rat): 3.62 min
